Experimental data published in US12509439B2, “Anti-malarial agents” (UNIVERSITY OF KENTUCKY RESEARCH FOUNDATION, priority 2020, dated 2025).
pEC50: −log10 of the molar value.

How the values were obtained:
[1] = system: Plasmodium falciparum (3D7); assay: In-vitro potency against P. falciparum (3D7 strain), SYBR Green growth inhibition; type: cell-based; settings: P. falciparum 3D7, asexual intraerythrocytic stage, SYBR Green fluorescence
Method: Cultures of the widely-used malaria reference strain of chloroquine-sensitive Plasmodium falciparum (3D7) were maintained in a 1.25% suspension of human red blood cells cultured in RPMI 1640 medium (pH 7.3) supplemented with 0.5% Albumax II (Gibco Life Technologies, San Diego, CA), 12 mM sodium bicarbonate, 0.2 mM hypoxanthine, and 20 mg/L gentamicin at 37° C., in an atmosphere of 1% O2, 3% CO2 with a balance of nitrogen (Human malaria parasites in continuous culture. Trager W et al., 1976, Science, 193: 673-675). Growth inhibition was quantified using a fluorescence assay utilising the binding of SYBR Green (Novel, rapid, and inexpensive cell-based quantification of antimalarial drug efficacy. Bennett T. N. et al., 2004, Antimicrob. Agents Chemother., 48: 1807-1810) to double stranded DNA, which emits a fluorescent signal at 528 nm after excitation at 485 nm. Mefloquine was used as a drug control to monitor the quality of the assay (Z′=0.6 to 0.8, where Z′ is a measure of the discrimination between the positive and negative controls on a screen plate). Hits were confirmed by full-potency curves with dose-response curves determined from a minimum of 3 independent experiments. Compound bioactivity was expressed as EC50, the effective concentration of compound causing 50% parasite death. All data were processed using IDBS ActivityBase. Raw data was converted into percent inhibition through linear regression by setting the high inhibition control as 100% and the no inhibition control as 0%. Quality control criteria for passing plates were as follows: z′>0.5, S:B>3, % CV(no inhibition control)<15. The formula used to calculate z′ is
Curve fitting was carried out using the following 4 parametric equation:
where A=% inhibition at bottom, B=% inhibition at top, C=EC50, D=slope, x=inhibitor concentration and y=% inhibition. If curve definition was poor, B was fixed to 100.

[2] = Microsomal intrinsic clearance, human liver microsomes; type: in vitro ADME; settings: human liver microsomes (pooled), pH 7.4, 45 min, NADPH
Method: (§1) The compounds of the invention (1 μM) were incubated in suspension with human (rat or mouse) liver microsomes pooled from multiple donors (>10) and samples taken at 5 time points over the course of a 45 min experiment and analysed by LC MS/MS. Microsomes (final protein concentration 0.5 mg/mL), 0.1 M phosphate buffer pH 7.4 and test compound (final substrate concentration 1 μM; final DMSO concentration 0.25%) were pre-incubated at 37° C. prior to the addition of NADPH (final concentration 1 mM) to initiate the reaction. A minus cofactor control incubation was included for each compound tested where 0.1 M phosphate buffer pH 7.4 is added instead of NADPH (minus NADPH). All incubations were performed in duplicate for each test compound and the results averaged. Each compound is incubated for 0, 5, 15, 30 and 45 min. The control (minus NADPH) was incubated for 45 min only. The reactions were stopped by transferring incubate into acetonitrile at the appropriate time points, in a 1:3 ratio.
(§2) The termination plates were centrifuged at 3,000 rpm for 20 min at 4° C. to precipitate the protein. Following protein precipitation, the sample supernatants were combined in cassettes of up to 4 compounds, internal standard added and samples analysed by LC-MS/MS. From a plot of ln peak area ratio (compound peak area/internal standard peak area) against time, the gradient of the line is determined. Subsequently, half-life (t½) and intrinsic clearance (CLint) are calculated using the equations below: Elimination rate constant (k)=(−gradient) Half-life (t1/2)(min)=0.693/k Intrinsic clearance (i.e. CLint)(μL/min/mg protein)=V×0.693/t1/2 where V=Incubation volume (μL)/Microsomal protein (mg)
(§3) Verapamil and dextromethorphan were included in the assay as controls and if the values for these compounds were not within the specified limits the results were rejected and the experiment repeated.

[3] = Microsomal intrinsic clearance, mouse liver microsomes; type: in vitro ADME; settings: mouse liver microsomes (pooled), pH 7.4, 45 min, NADPH
Method: as §1, §2, §3

[4] = Microsomal intrinsic clearance, rat liver microsomes; type: in vitro ADME; settings: rat liver microsomes (pooled), pH 7.4, 45 min, NADPH
Method: as §1, §2, §3

[5] = Hepatocyte intrinsic clearance, cryopreserved human hepatocytes; type: in vitro ADME; settings: cryopreserved human hepatocytes in suspension (pooled), 60 min
Method: The compounds of the invention (3 μM) were incubated in suspension with cryopreserved human (rat or mouse) hepatocytes pooled from multiple donors (>10) and samples taken at 6 time points over the course of a 60 min experiment and analysed by LC MS/MS. Williams E media supplemented with 2 mM L-glutamine and 25 mM HEPES and test compound (final substrate concentration 3 μM; final DMSO concentration 0.25%) were pre-incubated at 37° C. prior to the addition of a suspension of cryopreserved hepatocytes (final cell density 0.5×10^6 viable cells/mL in Williams E media supplemented with 2 mM L glutamine and 25 mM HEPES) to initiate the reaction. The final incubation volume is 500 μL. The reactions are stopped by transferring aliquots of incubate into acetonitrile at the appropriate time points, in a 1:2 ratio. The termination plates are centrifuged at 3,000 rpm for 20 min at 4° C. to precipitate the protein. Following protein precipitation, the sample supernatants were combined in cassettes of up to 4 compounds, internal standard was added and analysed by LC MS/MS. From a plot of ln peak area ratio (compound peak area/internal standard peak area) against time, the gradient of the line was determined. Subsequently, half-life (t½) and intrinsic clearance (CLint) were calculated using the equations below: Elimination rate constant (k)=(−gradient) Half-life (t½) (min)=0.693/k Intrinsic clearance (i.e. CLint) (μL/min/million cells)=V×0.693/t1/2
where V=Incubation volume (μL)/Number of cells
Verapamil and umbelliferone were included in the assay as controls and if the values for these compounds are not within the specified limits the results were rejected and the experiment repeated.

[6] = PK parameters in mouse (IV and PO); type: in vivo; settings: for PK parameters (mouse): F: 10 mg/kg IV and 10 mg/kg PO; for clearance / half-life: male, Swiss Albino, plasma, IV arm, 10 mg/kg; for clearance: read-out: PK parameters (mouse): Cl; for half-life: read-out: PK parameters (mouse): t1/2
Method: Swiss Albino male mice or Sprague Dawley rats (TCGLS, India) were kept under a 12/12 h light/dark cycle, 22±2° C. temp, 50±20% RH with free access to food and water ad libitum. Mice were selected randomly/based on body weight/age and fasted for 4 h before dosing and until 2 h after dosing. Three mice were used per route of administration. […]
(§4) Blood samples were taken (mice 50 μL, rat 100 μL) at regular timepoints from the saphenous vein (conscious restrained animals) and collected into heparinized capillary tubes and transferred into 0.5 mL microcentrifuge tubes. Samples were processed by centrifugation at 1640 g for 10 min at +4° C. within 30 min of collection and stored at −20° C. until bioanalysis. All samples were mixed with ice-cold acetonitrile containing an internal standard, centrifuged at 4000 rpm for 15 min at 15° C. Supernatant was then half diluted in water and analysed by LCMS/MS analysis to determine analyte peak area/IS peak area (the ratio). Concentration (plasma) of the compounds of the invention was determined by reference to a calibration curve. Pharmacokinetic parameters (Cmax, Tmax, AUC, t1/2, CL, Vd, BA) were calculated using WinNonLin, using non-compartmental analysis (Phoenix, Version 6.3). The pharmacokinetic parameters for compounds shown in Table 2 support that compounds of the invention have pharmacokinetic properties associated with treatment of malaria via the oral route and that compounds have substantially longer half-lives than the reference compound.

[7] = PK parameters in rat (IV and PO); type: in vivo; settings: for PK parameters (rat): F: 1 mg/kg IV and 3 mg/kg PO; for clearance / half-life: Sprague Dawley, plasma, IV arm, 1 mg/kg; for clearance: read-out: PK parameters (rat): Cl; for half-life: read-out: PK parameters (rat): t1/2
Method: Swiss Albino male mice or Sprague Dawley rats (TCGLS, India) were kept under a 12/12 h light/dark cycle, 22±2° C. temp, 50±20% RH with free access to food and water ad libitum. Mice were selected randomly/based on body weight/age and fasted for 4 h before dosing and until 2 h after dosing. Three mice were used per route of administration. For IV determination (1 mg/kg, dose volume 5 ml/kg) the dose was administered by injection into the lateral tail vein (rats are anaesthetized using 3% v/v isoflurane: oxygen mixture). For PO determination (3 mg/kg, dose volume 10 ml/kg) the dose was administered by oral gavage in conscious animals.
as §4

| SMILES | pEC50 [1] | microsomal CLint at 1 μM [2] [µL/min/mg] | microsomal CLint at 1 μM [3] [µL/min/mg] | microsomal CLint at 1 μM [4] [µL/min/mg] | hepatocyte CLint at 3 μM [5] [µL/min/1e6 cells] | PK parameters (mouse): F [6] | clearance [6] [mL/min/kg] | half-life [6] [h] | PK parameters (rat): F [7] | clearance [7] [mL/min/kg] | half-life [7] [h] |
| --- | --- | --- | --- | --- | --- | --- | --- | --- | --- | --- | --- |
| CC(C)Oc1ccc(C2C(C(=O)Nc3ccc(F)c(C#N)c3)c3ccccc3C(=O)N2CC(F)(F)F)cn1 (racemic) [(2), (+, −)-N-(3-cyano-4-fluorophenyl)-3-(6-isopropoxypyridin-3-yl)-1-oxo-2-(2,2,2-trifluoroethyl)-1,2,3,4-tetrahydroisoquinoline-4-carboxamide] | 7.10 | 13 |  |  |  |  |  |  |  |  |  |
| N#Cc1cc(NC(=O)[C@H]2c3ccccc3C(=O)N(CC(F)(F)F)[C@@H]2c2ccc(C(F)(F)F)nc2)ccc1F [(3a), (3S,4S)—N-(3-cyano-4-fluorophenyl)-1-oxo-2-(2,2,2-trifluoroethyl)-3-(6-(trifluoromethyl)pyridin-3-yl)-1,2,3,4-tetrahydroisoquinoline-4-carboxamide] | 7.15 | 6 | < 10 | < 10 | < 10 | F = 95% | 1.67 | 11 | F = 95% | 0.667 | 11 |
| N#Cc1cc(NC(=O)[C@H]2c3ccccc3C(=O)N(CC(F)(F)F)[C@@H]2c2ccc(OCC(F)(F)F)nc2)ccc1F [(4a), (3S,4S)—N-(3-cyano-4-fluorophenyl)-1-oxo-3-(6-(2,2,2-trifluoroethoxy)pyridin-3-yl)-2-(2,2,2-trifluoroethyl)-1,2,3,4-tetrahydroisoquinoline-4-carboxamide] | 7.28 | < 3 | < 10 | < 10 | < 3 | F = 56% | 2.67 | 41 | F = 33% | 0.5 | 85 |
| CC(=O)Nc1ccc([C@@H]2[C@@H](C(=O)Nc3ccc(F)c(C#N)c3)c3ccccc3C(=O)N2CC(F)(F)F)cn1 [(5a), (3S,4S)-3-(6-acetamidopyridin-3-yl)-N-(3-cyano-4-fluorophenyl)-1-oxo-2-(2,2,2-trifluoroethyl)-1,2,3,4-tetrahydroisoquinoline-4-carboxamide] | 7.40 |  |  |  |  |  |  |  |  |  |  |
| N#Cc1ccc([C@@H]2[C@@H](C(=O)Nc3ccc(F)c(C#N)c3)c3ccccc3C(=O)N2CC(F)(F)F)cn1 [(6a), (3S,4S)—N-(3-cyano-4-fluorophenyl)-3-(6-cyanopyridin-3-yl)-1-oxo-2-(2,2,2-trifluoroethyl)-1,2,3,4-tetrahydroisoquinoline-4-carboxamide] | 7.17 | < 3 | < 10 |  | < 3 |  |  |  |  |  |  |
| N#Cc1cc(NC(=O)[C@H]2c3ccccc3C(=O)N(CC(F)(F)F)[C@@H]2c2ccc(OC(F)F)nc2)ccc1F [(7a), (3S,4S)—N-(3-cyano-4-fluorophenyl)-3-(6-(difluoromethoxy)pyridin-3-yl)-1-oxo-2-(2,2,2-trifluoroethyl)-1,2,3,4-tetrahydroisoquinoline-4-carboxamide] | 7.17 | < 3 | < 10 |  | < 10 | F = 108% | 2.67 | 18 | F = 108% | 1.5 | 38 |
| N#Cc1cc(NC(=O)[C@H]2c3ccccc3C(=O)N(CC(F)(F)F)[C@@H]2c2ccc(C(F)F)nc2)ccc1F [(8a), (3S,4S)—N-(3-cyano-4-fluorophenyl)-3-(6-(difluoromethyl)pyridin-3-yl)-1-oxo-2-(2,2,2-trifluoroethyl)-1,2,3,4-tetrahydroisoquinoline-4-carboxamide] | 7.23 | < 3 | < 10 |  | 4 | F = 37% | 3.33 | 56 |  |  |  |
